Assays:
[1] = tested on: HSV-1; assay: antiviral profiling, HSV-1 in Vero cells (Table 14); format: cell-based; conditions: Human alphaherpesvirus 1; HSV-1, Vero cells
[2] = tested on: HRV-14; assay: antiviral activity, HRV-14 in HeLa cells (Table 15); format: cell-based, human rhinovirus 14 (HRV-14); conditions: Rhinovirus B, HRV14; HRV-14 (HeLa cells)
[3] = tested on: HRV-2; assay: antiviral activity, HRV-2 in HeLa cells (Table 15); format: cell-based, human rhinoviruses (HRV); conditions: Rhinovirus A, HRV2; HRV-2 (HeLa cells)
[4] = tested on: HeLa cells; assay: cytotoxicity CC50 in HeLa cells (Table 15); format: cell-based
[5] = cytotoxicity CC50 in HeLa cells (Table 15); format: cell-based; conditions: human, HRV-2 column
[6] = cytotoxicity CC50 in Huh7 cells (Table 14); format: cell-based; conditions: human, HCV column
[7] = tested on: RSV; assay: antiviral profiling, RSV in Vero cells (Table 14); format: cell-based; conditions: human respiratory syncytial virus
[8] = tested on: Influenza; assay: antiviral profiling, Influenza in MDCK cells (Table 14); format: cell-based
[9] = tested on: YFV; assay: microbe, parasite or virus in culture; format: cell-based; conditions: Yellow fever virus, BHK-21
[10] = cytotoxicity CC50 in MT-4 cells (Table 14); format: cell-based; conditions: human, HIV column
[11] = cytotoxicity CC50 in MDCK cells (Table 14); conditions: dog
[12] = cytotoxicity measurement (CC50), Table 13; format: cell-based; conditions: human, Huh7 cells
[13] = tested on: Vero; assay: cytotoxicity CC50 in Vero cells (Table 14)
[14] = in vitro; conditions: Syrian hamster
[15] = in vitro; conditions: African green monkey
[16] = tested on: Sb-1; assay: microbe, parasite or virus in culture; format: cell-based, poliovirus; conditions: Enterovirus C, Vero
[17] = tested on: HCV replicon; assay: anti-viral assay (EC50), Table 13; format: cell-based; conditions: Hepatitis C virus, anti-viral assays
Text: The ability of a compound to inhibit HCV replication can be measured in vitro or using animal models using models and assays well known to those of skill in the art (e.g. Pietschmann et al, Clin Liver Dis. 7(1)c23-43, 2003). In vitro techniques for measuring the ability of a compound to inhibit HCV replication involve using HCV or an HCV replicon. Because HCV is difficult to grow in culture, particular in vitro techniques employ an HCV replicon.
An HCV replicon is an RNA molecule able to autonomously replicate in a cultured cell, such as Huh7. The HCV replicon expresses the HCV derived components of the replication machinery and contains cis-elements required for replication in a cultured cell. […]

[18] = tested on: CVB-2; assay: antiviral profiling, CVB-2 in Vero cells (Table 14); format: cell-based, coxsackie B virus
[19] = tested on: HCV; assay: antiviral profiling, HCV in Huh7 cells (Table 14); format: cell-based; conditions: Hepatitis C virus, Huh-7
[20] = tested on: HIV; assay: antiviral profiling, HIV in MT-4 cells (Table 14); format: cell-based; conditions: Human immunodeficiency virus 1, MT4
[21] = tested on: HRV clinical isolate; assay: antiviral activity, HRV clinical isolate in HeLa cells (Table 15); format: cell-based, human rhinoviruses (HRV); conditions: Enterovirus
[22] = tested on: VSV; assay: microbe, parasite or virus in culture; format: cell-based; conditions: Vesicular stomatitis virus, Vero

SMILES: NS(=O)(=O)c1ccc(CNc2nccn3c(-c4ccc(O)cc4)cnc23)cc1 [Compound 1, 4-{[3-(4-Hydroxy-phenyl)-imidazol[1,2-a]pyrazin-8-ylamino]-methyl}-benzenesulfonamide]
- EC50 [1]: > 20 µM
- EC50 [2]: < 1 µg/mL
- EC50 [3]: < 1 µg/mL
- CC50(μg/mL) ([4]; HRV clinical isolate column): * (>35 μg/mL)
- CC50(μg/mL) ([4]; HRV-14 column): * (>35 μg/mL)
- CC50 [5]: > 35 µg/mL
- CC50 [6]: > 35 µM
- EC50 [7]: > 20 µM
- EC50 [8]: > 20 µM
- EC50 [9]: 1 to 20 µM
- CC50 [10]: < 35 µM
- CC50 [11]: > 35 µM
- CC50 [12]: > 35 µM
- CC50 ([13]; HSV-1): > 35 µM
- CC50 ([13]; RSV column): > 35 µM
- CC50 ([13]; Sb-1 column): > 35 µM
- CC50 [14]: < 35 µM
- CC50 [15]: > 35 µM
- CC50 ([15]; Vero cells): > 35 µM
- EC50 [16]: < 1 µM
- EC50 [17]: < 1 µM
- EC50 [18]: < 1 µM
- EC50 [19]: < 1 µM
- EC50 [20]: 1 to 20 µM
- EC50 [21]: < 1 µg/mL
- EC50 [22]: > 20 µM

Source: patent US8362018B2, “Substituted imidazo[1,2-a]pyrazine compounds useful for the treatment of viral infections” (Biofocus DPI, Ltd., priority 2007, dated 2013)
